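Protocol summary: plate cells (96-well), add compound at 5 concentrations, incubate 48 h, interpolate endpoints linearly. GI50 marks 50% less growth. TGI marks complete inhibition of growth.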
Legend:
Test in all cases: inhibition of tumour cell growth, NCI panel, 48 h
786-0 renal = test system: 786-0 renal
A498 renal = test system: A498 renal
A549 NSCLC = test system: A549 NSCLC
ACHN renal = test system: ACHN renal
CAKI-1 renal = test system: CAKI-1 renal
CCRF-CEM leukemia = test system: CCRF-CEM leukemia
COLO 205 colon = test system: COLO 205 colon
DU-145 prostate = test system: DU-145 prostate
EKVX NSCLC = test system: EKVX NSCLC
HCC-2998 colon = test system: HCC-2998 colon
HCT-15 colon = test system: HCT-15 colon
HL-60(TB) leukemia = test system: HL-60(TB) leukemia
HOP-62 NSCLC = test system: HOP-62 NSCLC
HOP-92 NSCLC = test system: HOP-92 NSCLC
HT29 colon = test system: HT29 colon
IGROV1 ovarian = test system: IGROV1 ovarian
K-562 leukemia = test system: K-562 leukemia
LOX IMVI melanoma = test system: LOX IMVI melanoma
M14 melanoma = test system: M14 melanoma
MALME-3M melanoma = test system: MALME-3M melanoma
MCF7 breast = test system: MCF7 breast
MDA-MB-231 breast = test system: MDA-MB-231 breast
MDA-MB-435 = test system: MDA-MB-435
MDA-MB-468 breast = test system: MDA-MB-468 breast
MOLT-4 leukemia = test system: MOLT-4 leukemia
NCI-H226 lung = test system: NCI-H226 lung
NCI-H23 lung = test system: NCI-H23 lung
NCI-H460 lung = test system: NCI-H460 lung
NCI-H522 lung = test system: NCI-H522 lung
OVCAR-3 ovarian = test system: OVCAR-3 ovarian
OVCAR-4 ovarian = test system: OVCAR-4 ovarian
OVCAR-5 ovarian = test system: OVCAR-5 ovarian
OVCAR-8 ovarian = test system: OVCAR-8 ovarian
PC-3 prostate = test system: PC-3 prostate
RPMI-8226 leukemia = test system: RPMI-8226 leukemia
RXF 393 renal = test system: RXF 393 renal
SF-268 CNS = test system: SF-268 CNS
SF-295 CNS = test system: SF-295 CNS
SF-539 CNS = test system: SF-539 CNS
SK-MEL-2 melanoma = test system: SK-MEL-2 melanoma
SK-MEL-28 melanoma = test system: SK-MEL-28 melanoma
SK-MEL-5 melanoma = test system: SK-MEL-5 melanoma
SK-OV-3 ovarian = test system: SK-OV-3 ovarian
SN12C renal = test system: SN12C renal
SNB-19 CNS = test system: SNB-19 CNS
SNB-75 CNS = test system: SNB-75 CNS
SR leukemia = test system: SR leukemia
SW-620 colon = test system: SW-620 colon
T-47D breast = test system: T-47D breast
TK-10 renal = test system: TK-10 renal
U251 CNS = test system: U251 CNS
UACC-257 melanoma = test system: UACC-257 melanoma
UACC-62 melanoma = test system: UACC-62 melanoma
UO-31 renal = test system: UO-31 renal

C=C1CC[C@@H]2[C@]3(C)COC(c4cn(-c5ccccc5)nc4-c4cccc([N+](=O)[O-])c4)O[C@@H]3CC[C@@]2(C)[C@@H]1C/C=C1/C(=O)OC[C@H]1O (stereo partly drawn)
GI50 (786-0 renal): 3.04 µM | TGI (786-0 renal): 10.3 µM | GI50 (A498 renal): 18.9 µM | TGI (A498 renal): 45.4 µM | GI50 (A549 NSCLC): 3.62 µM | TGI (A549 NSCLC): > 100 µM | GI50 (ACHN renal): 1.89 µM | TGI (ACHN renal): 3.62 µM | GI50 (CAKI-1 renal): 2.81 µM | TGI (CAKI-1 renal): > 100 µM | GI50 (CCRF-CEM leukemia): 1.14 µM | TGI (CCRF-CEM leukemia): 5.01 µM | GI50 (COLO 205 colon): 2.41 µM | TGI (COLO 205 colon): 5.06 µM | GI50 (DU-145 prostate): 4.11 µM | TGI (DU-145 prostate): 24.3 µM | GI50 (EKVX NSCLC): 2.75 µM | TGI (EKVX NSCLC): 7.98 µM | GI50 (HCC-2998 colon): 1.92 µM | TGI (HCC-2998 colon): 3.53 µM | GI50 (HCT-15 colon): 1.74 µM | TGI (HCT-15 colon): 3.58 µM | GI50 (HL-60(TB) leukemia): 1.73 µM | TGI (HL-60(TB) leukemia): > 100 µM | GI50 (HOP-62 NSCLC): 3.15 µM | TGI (HOP-62 NSCLC): 12.4 µM | GI50 (HOP-92 NSCLC): 1.86 µM | TGI (HOP-92 NSCLC): 3.64 µM | GI50 (HT29 colon): 1.82 µM | TGI (HT29 colon): 4.26 µM | GI50 (IGROV1 ovarian): 2.08 µM | TGI (IGROV1 ovarian): 4.27 µM | GI50 (K-562 leukemia): 2.16 µM | TGI (K-562 leukemia): > 100 µM | GI50 (LOX IMVI melanoma): 1.72 µM | TGI (LOX IMVI melanoma): 3.34 µM | GI50 (M14 melanoma): 2.08 µM | TGI (M14 melanoma): 4.52 µM | GI50 (MALME-3M melanoma): 1.78 µM | TGI (MALME-3M melanoma): 3.55 µM | GI50 (MCF7 breast): 2.64 µM | TGI (MCF7 breast): > 100 µM | GI50 (MDA-MB-231 breast): 1.84 µM | TGI (MDA-MB-231 breast): 3.44 µM | GI50 (MDA-MB-435): 3.03 µM | TGI (MDA-MB-435): 18.3 µM | GI50 (MDA-MB-468 breast): 1.76 µM | TGI (MDA-MB-468 breast): 3.52 µM | GI50 (MOLT-4 leukemia): 2.87 µM | TGI (MOLT-4 leukemia): > 100 µM | GI50 (NCI-H226 lung): 2.38 µM | TGI (NCI-H226 lung): 6.59 µM | GI50 (NCI-H23 lung): 1.83 µM | TGI (NCI-H23 lung): 3.55 µM | GI50 (NCI-H460 lung): 2.27 µM | TGI (NCI-H460 lung): 4.8 µM | GI50 (NCI-H522 lung): 1.75 µM | TGI (NCI-H522 lung): 3.41 µM | GI50 (OVCAR-3 ovarian): 1.87 µM | TGI (OVCAR-3 ovarian): 3.75 µM | GI50 (OVCAR-4 ovarian): 4.05 µM | TGI (OVCAR-4 ovarian): > 100 µM | GI50 (OVCAR-5 ovarian): 2.06 µM | TGI (OVCAR-5 ovarian): 5.05 µM | GI50 (OVCAR-8 ovarian): 1.9 µM | TGI (OVCAR-8 ovarian): 5.04 µM | GI50 (PC-3 prostate): 2.75 µM | TGI (PC-3 prostate): 9.04 µM | GI50 (RPMI-8226 leukemia): 2.45 µM | TGI (RPMI-8226 leukemia): > 100 µM | GI50 (RXF 393 renal): 1.62 µM | TGI (RXF 393 renal): 3.2 µM | GI50 (SF-268 CNS): 7.65 µM | TGI (SF-268 CNS): > 100 µM | GI50 (SF-295 CNS): 1.68 µM | TGI (SF-295 CNS): 3.19 µM | GI50 (SF-539 CNS): 1.74 µM | TGI (SF-539 CNS): 3.18 µM | GI50 (SK-MEL-2 melanoma): 1.78 µM | TGI (SK-MEL-2 melanoma): 3.51 µM | GI50 (SK-MEL-28 melanoma): 2.04 µM | TGI (SK-MEL-28 melanoma): 4.06 µM | GI50 (SK-MEL-5 melanoma): 1.63 µM | TGI (SK-MEL-5 melanoma): 3 µM | GI50 (SK-OV-3 ovarian): 29.8 µM | TGI (SK-OV-3 ovarian): > 100 µM | GI50 (SN12C renal): 2.93 µM | TGI (SN12C renal): 10.3 µM | GI50 (SNB-19 CNS): 3.65 µM | TGI (SNB-19 CNS): 15 µM | GI50 (SNB-75 CNS): 7.34 µM | TGI (SNB-75 CNS): 50.1 µM | GI50 (SR leukemia): 3.46 µM | TGI (SR leukemia): > 100 µM | GI50 (SW-620 colon): 2.21 µM | TGI (SW-620 colon): 5.13 µM | GI50 (T-47D breast): 1.76 µM | TGI (T-47D breast): 5.02 µM | GI50 (TK-10 renal): 2.22 µM | TGI (TK-10 renal): 5.82 µM | GI50 (U251 CNS): 1.74 µM | TGI (U251 CNS): 3.35 µM | GI50 (UACC-257 melanoma): 1.8 µM | TGI (UACC-257 melanoma): 3.68 µM | GI50 (UACC-62 melanoma): 1.69 µM | TGI (UACC-62 melanoma): 3.46 µM | GI50 (UO-31 renal): 1.82 µM | TGI (UO-31 renal): 5.46 µM

From PubChem BioAssay (NCI)
